Patent US11852971B2, “Compound, photosensitive resin composition including the same, photosensitive resin layer, color filter and display device” (SAMSUNG SDI CO., LTD., priority 2019, dated 2023)

Key:
[1] = Measurement of the shortest wavelength of full width at half maximum (FWHM) with respect to maximum absorption wavelength (absorption spectrum); type: physicochemical; conditions: 0.005 wt % in PGMEA; UV-1800
Text: The shortest wavelength of the full width at half maximum (FWHM) with respect to the maximum absorption wavelengths denotes a wavelength having the smallest value (a) among the energy widths (Δλ) of the maximum absorption wavelength (b) in the absorption spectrum of a particular phthalocyanine compound. (Refer to the FIGURE)
Evaluation 1: Measurement of the Shortest Wavelength of Full Width at Half Maximum (FWHM) with respect to Maximum Absorption Wavelength
The compounds according to Synthesis Example 1 to Synthesis Example 21 and Comparative Synthesis Example 1 to Comparative Synthesis Example 6 were prepared at a concentration of 0.005 wt % using a diluting solvent (PGMEA). Absorption spectra were obtained for each of the phthalocyanine compounds according to Synthesis Example 1 to […] and Comparative Synthesis Example 1 to Comparative Synthesis Example 6, and the results are shown in Table 1 (UV-1800, SHTMADZU).

[2] = Solubility measurement in dilution solvent (PGMEA); type: physicochemical; conditions: PGMEA added to 0.5 g compound, stirred 100 rpm, one hour, 25° C.
Experimental: Evaluation 2: Solubility Measurement Solubility of the compounds according to Synthesis Examples 11 to 21 and Comparative Synthesis Examples 1 to 6 were measured by adding a dilution solvent (PGMEA) to 0.5 g of each compound and respectively stirring the mixtures (MIXROTAR VMR-5, Iuchi Seiei Dou Co.) at 100 rpm for one hour at 25° C., and the results are shown in Table 2. Solubility Evaluation Criteria Greater than or equal to 10 wt % of a compound (a solute) based on a total amount of a diluting solvent was dissolved: ∘ Less than 10 wt % of a compound (a solute) based on a total amount of a diluting solvent was dissolved: X

Compound	The shortest wavelength (nm) of full width at half maximum (FWHM) with respect to maximum absorption wavelength [1] [nm]	Solubility [2]
CC(C)(C)c1ccccc1Oc1c(Cl)c(Cl)c2c(c1Cl)/C1=N/c3c4c(Cl)c(Oc5ccccc5C(C)(C)C)c(Cl)c(Cl)c4c4[n]3[Zn][n]3/c(c5ccccc5/c3=N/C2=N1)=N\C1=NC(=N\4)/c2c(Cl)c(Cl)c(Cl)c(Cl)c21 [Synthesis Example 3]	618	○
CC(C)(C)c1ccccc1Oc1c(Cl)c(Cl)c2c(c1Cl)/C1=N/c3c4c(Cl)c(Cl)c(Cl)c(Cl)c4c4[n]3[Zn][n]3/c(c5ccccc5/c3=N/C2=N1)=N\C1=NC(=N\4)/c2c(Cl)c(Cl)c(Cl)c(Cl)c21 [Synthesis Example 4]	617	○
Cc1ccccc1Oc1c(Cl)c(Cl)c2c(c1Cl)/C1=N/c3c4c(Cl)c(Oc5ccccc5C)c(Cl)c(Cl)c4c4[n]3[Zn][n]3/c(c5ccccc5/c3=N/C2=N1)=N\C1=NC(=N\4)/c2c(Cl)c(Cl)c(Cl)c(Cl)c21 [Synthesis Example 5]	618	○
Cc1cccc(C)c1Oc1c(Cl)c(Cl)c2c(c1Cl)/C1=N/c3c4c(Cl)c(Oc5c(C)cccc5C)c(Cl)c(Cl)c4c4[n]3[Zn][n]3/c(c5ccccc5/c3=N/C2=N1)=N\C1=NC(=N\4)/c2c(Cl)c(Cl)c(Cl)c(Cl)c21 [Synthesis Example 6]	618	○
Cc1cccc(C)c1Oc1c(Cl)c(Cl)c2c(c1Cl)/C1=N/c3c4c(Cl)c(Cl)c(Cl)c(Cl)c4c4[n]3[Zn][n]3/c(c5ccccc5/c3=N/C2=N1)=N\C1=NC(=N\4)/c2c(Cl)c(Cl)c(Cl)c(Cl)c21 [Synthesis Example 7]	618	○
CC(C)(C)c1ccc(Oc2c(Cl)c(Cl)c3c(c2Cl)/C2=N/c4c5c(Cl)c(Oc6ccc(C(C)(C)C)cc6C(C)(C)C)c(Cl)c(Cl)c5c5[n]4[Zn][n]4/c(c6ccccc6/c4=N/C3=N2)=N\C2=NC(=N\5)/c3c(Cl)c(Cl)c(Cl)c(Cl)c32)c(C(C)(C)C)c1 [Synthesis Example 8]	616	○
CC(C)(C)c1ccc(Oc2c(Cl)c(Cl)c3c(c2Cl)/C2=N/c4c5c(Cl)c(Cl)c(Cl)c(Cl)c5c5[n]4[Zn][n]4/c(c6ccccc6/c4=N/C3=N2)=N\C2=NC(=N\5)/c3c(Cl)c(Cl)c(Cl)c(Cl)c32)c(C(C)(C)C)c1 [Synthesis Example 9]	618	○
Cc1ccc(Oc2c(Cl)c(Cl)c3c(c2Cl)/C2=N/c4c5c(Cl)c(Oc6ccc(C)cc6C(C)(C)C)c(Cl)c(Cl)c5c5[n]4[Zn][n]4/c(c6ccccc6/c4=N/C3=N2)=N\C2=NC(=N\5)/c3c(Cl)c(Cl)c(Cl)c(Cl)c32)c(C(C)(C)C)c1 [Synthesis Example 10]	616	○
Cc1ccc(Oc2c(Cl)c(Cl)c3c(c2Cl)/C2=N/c4c5c(Cl)c(Oc6ccc(C)cc6C(C)(C)C)c(Cl)c(Cl)c5c5[n]4[Zn][n]4/c(c6ccccc6/c4=N/C3=N2)=N\C2=NC(=N\5)/c3ccccc32)c(C(C)(C)C)c1 [Synthesis Example 11]	611	○
CC(C)(C)COc1c(Cl)c(Cl)c2c(c1Cl)/C1=N/c3c4c(Cl)c(OCC(C)(C)C)c(Cl)c(Cl)c4c4[n]3[Zn][n]3/c(c5ccccc5/c3=N/C2=N1)=N\C1=NC(=N\4)/c2c(Cl)c(Cl)c(Cl)c(Cl)c21 [Synthesis Example 12]	617	○
CC(C)(C)COc1c(Cl)c(Cl)c2c(c1Cl)/C1=N/c3c4c(Cl)c(Cl)c(Cl)c(Cl)c4c4[n]3[Zn][n]3/c(c5ccccc5/c3=N/C2=N1)=N\C1=NC(=N\4)/c2c(Cl)c(Cl)c(Cl)c(Cl)c21 [Synthesis Example 13]	618	○
CC(C)(C)COc1c(Cl)c(Cl)c2c(c1Cl)/C1=N/c3c4c(Cl)c(OCC(C)(C)C)c(Cl)c(Cl)c4c4[n]3[Zn][n]3/c(c5ccccc5/c3=N/C2=N1)=N\C1=NC(=N\4)/c2ccccc21 [Synthesis Example 14]	611	○
CC(C)CCOc1c(Cl)c(Cl)c2c(c1Cl)/C1=N/c3c4c(Cl)c(OCCC(C)C)c(Cl)c(Cl)c4c4[n]3[Zn][n]3/c(c5ccccc5/c3=N/C2=N1)=N\C1=NC(=N\4)/c2c(Cl)c(Cl)c(Cl)c(Cl)c21 [Synthesis Example 15]	617	○
CC(C)CCOc1c(Cl)c(Cl)c2c(c1Cl)/C1=N/c3c4c(Cl)c(Cl)c(Cl)c(Cl)c4c4[n]3[Zn][n]3/c(c5ccccc5/c3=N/C2=N1)=N\C1=NC(=N\4)/c2c(Cl)c(Cl)c(Cl)c(Cl)c21 [Synthesis Example 16]	618	○
CC(C)CCOc1c(Cl)c(Cl)c2c(c1Cl)/C1=N/c3c4c(Cl)c(OCCC(C)C)c(Cl)c(Cl)c4c4[n]3[Zn][n]3/c(c5ccccc5/c3=N/C2=N1)=N\C1=NC(=N\4)/c2ccccc21 [Synthesis Example 17]	611	○
CC(C)COc1c(Cl)c(Cl)c2c(c1Cl)/C1=N/c3c4c(Cl)c(OCC(C)C)c(Cl)c(Cl)c4c4[n]3[Zn][n]3/c(c5ccccc5/c3=N/C2=N1)=N\C1=NC(=N\4)/c2c(Cl)c(Cl)c(Cl)c(Cl)c21 [Synthesis Example 18]	617	○
CC(C)COc1c(Cl)c(Cl)c2c(c1Cl)/C1=N/c3c4c(Cl)c(Cl)c(Cl)c(Cl)c4c4[n]3[Zn][n]3/c(c5ccccc5/c3=N/C2=N1)=N\C1=NC(=N\4)/c2c(Cl)c(Cl)c(Cl)c(Cl)c21 [Synthesis Example 19]	618	○
CC(C)COc1c(Cl)c(Cl)c2c(c1Cl)/C1=N/c3c4c(Cl)c(OCC(C)C)c(Cl)c(Cl)c4c4[n]3[Zn][n]3/c(c5ccccc5/c3=N/C2=N1)=N\C1=NC(=N\4)/c2ccccc21 [Synthesis Example 20]	611	○
CC(C)(C)c1ccc(Oc2c(Cl)c(Cl)c3c(c2Cl)/C2=N/c4c5ccccc5c5[n]4[Zn][n]4/c(c6ccccc6/c4=N/C3=N2)=N\C2=NC(=N\5)/c3ccccc32)c(C(C)(C)C)c1 [Synthesis Example 21]	608	X (Less than 10 wt % of a compound (a solute) based on a total amount of a diluting solvent was dissolved)
